{"source": "ChEMBL document CHEMBL5042539", "about": "“Structure-Guided Discovery of the Novel Covalent Allosteric Site and Covalent Inhibitors of Fructose-1,6-Bisphosphate Aldolase to Overcome the Azole Resistance of Candidiasis” (J Med Chem, 2022)", "key": {"Candida albicans [1]": {"system": "Candida albicans", "experiment": "Selectivity ratio of IC50 for inhibition of Candida albicans Fructose-1,6-Bisphosphate Aldolase C292S mutant to IC50 for inhibition of wild type Candida albicans Fructose-1,6-Bisphosphate Aldolase"}, "[2]": {"experiment": "Inhibition of Candida albicans Fructose-1,6-Bisphosphate Aldolase C292S mutant transfected in Escherichia coli BL21 (DE3) incubated for 3 mins in presence of NADH by spectrophotometric analysis"}, "[3]": {"experiment": "Inhibition of Candida albicans Fructose-1,6-Bisphosphate Aldolase C157S mutant transfected in Escherichia coli BL21 (DE3) incubated for 3 mins in presence of NADH by spectrophotometric analysis"}, "[4]": {"experiment": "Inhibition of Candida albicans Fructose-1,6-Bisphosphate Aldolase C111S mutant transfected in Escherichia coli BL21 (DE3) incubated for 3 mins in presence of NADH by spectrophotometric analysis"}, "Candida albicans [5]": {"system": "Candida albicans", "experiment": "Antifungal activity against Candida albicans SC5314 incubated for 48 hrs by CLSI based broth microdilution method", "assay_type": "functional"}, "Candida albicans [6]": {"system": "Candida albicans", "experiment": "Antifungal activity against fluconazole resistant Candida albicans 103 incubated for 48 hrs by CLSI based broth microdilution method", "assay_type": "functional"}, "Candida albicans [7]": {"system": "Candida albicans", "experiment": "Antifungal activity against fluconazole resistant Candida albicans 7781 incubated for 48 hrs by CLSI based broth microdilution method", "assay_type": "functional"}, "Candida albicans [8]": {"system": "Candida albicans", "experiment": "Antifungal activity against fluconazole resistant Candida albicans 904 incubated for 48 hrs by CLSI based broth microdilution method", "assay_type": "functional"}, "[9]": {"experiment": "Inhibition of wild type Candida albicans Fructose-1,6-Bisphosphate Aldolase transfected in Escherichia coli BL21 (DE3) incubated for 3 mins in presence of NADH by spectrophotometric analysis"}, "[10]": {"experiment": "Toxicity in po dosed rat assessed as lethal dose", "assay_type": "organism-based", "details": "in vivo"}, "[11]": {"experiment": "Cytotoxicity against human HaCaT cells", "assay_type": "toxicity, cell-based"}, "Candida albicans [12]": {"system": "Candida albicans", "experiment": "Inhibition of wild type Candida albicans Fructose-1,6-Bisphosphate Aldolase transfected in Escherichia coli BL21 (DE3) assessed as Kcat by kinetic based analysis"}, "Candida albicans [13]": {"system": "Candida albicans", "experiment": "Inhibition of wild type Candida albicans Fructose-1,6-Bisphosphate Aldolase transfected in Escherichia coli BL21 (DE3) assessed as Km by kinetic based analysis"}, "Candida albicans [14]": {"system": "Candida albicans", "experiment": "Inhibition of wild type Candida albicans Fructose-1,6-Bisphosphate Aldolase transfected in Escherichia coli BL21 (DE3) assessed as Kcat/Km by kinetic based analysis"}, "Candida albicans [15]": {"system": "Candida albicans", "experiment": "Inhibition of Candida albicans Fructose-1,6-Bisphosphate Aldolase C292S mutant transfected in Escherichia coli BL21 (DE3) assessed as Kcat by kinetic based analysis"}, "Candida albicans [16]": {"system": "Candida albicans", "experiment": "Inhibition of Candida albicans Fructose-1,6-Bisphosphate Aldolase C292S mutant transfected in Escherichia coli BL21 (DE3) assessed as Km by kinetic based analysis"}, "Candida albicans [17]": {"system": "Candida albicans", "experiment": "Inhibition of Candida albicans Fructose-1,6-Bisphosphate Aldolase C292S mutant transfected in Escherichia coli BL21 (DE3) assessed as Kcat/Km by kinetic based analysis"}, "Candida albicans [18]": {"system": "Candida albicans", "experiment": "Inhibition of Candida albicans Fructose-1,6-Bisphosphate Aldolase C157S mutant transfected in Escherichia coli BL21 (DE3) assessed as Kcat by kinetic based analysis"}, "Candida albicans [19]": {"system": "Candida albicans", "experiment": "Inhibition of Candida albicans Fructose-1,6-Bisphosphate Aldolase C157S mutant transfected in Escherichia coli BL21 (DE3) assessed as Km by kinetic based analysis"}, "Candida albicans [20]": {"system": "Candida albicans", "experiment": "Inhibition of Candida albicans Fructose-1,6-Bisphosphate Aldolase C157S mutant transfected in Escherichia coli BL21 (DE3) assessed as Kcat/Km by kinetic based analysis"}, "Candida albicans [21]": {"system": "Candida albicans", "experiment": "Inhibition of Candida albicans Fructose-1,6-Bisphosphate Aldolase C111S mutant transfected in Escherichia coli BL21 (DE3) assessed as Kcat by kinetic based analysis"}, "Candida albicans [22]": {"system": "Candida albicans", "experiment": "Inhibition of Candida albicans Fructose-1,6-Bisphosphate Aldolase C111S mutant transfected in Escherichia coli BL21 (DE3) assessed as Km by kinetic based analysis"}, "Candida albicans [23]": {"system": "Candida albicans", "experiment": "Inhibition of Candida albicans Fructose-1,6-Bisphosphate Aldolase C111S mutant transfected in Escherichia coli BL21 (DE3) assessed as Kcat/Km by kinetic based analysis"}, "[24]": {"experiment": "Binding affinity to Candida albicans Fructose-1,6-Bisphosphate Aldolase assessed as inhibition constant incubated for 12 to 40 mins by NADH-linked enzymatic assay"}, "Candida albicans [25]": {"system": "Candida albicans", "experiment": "Binding affinity to Candida albicans Fructose-1,6-Bisphosphate Aldolase assessed as Kinact incubated for 12 to 40 mins by NADH-linked enzymatic assay", "details": "time 12-40 min"}, "Candida albicans [26]": {"system": "Candida albicans", "experiment": "Binding affinity to Candida albicans Fructose-1,6-Bisphosphate Aldolase assessed as ratio of kinact/Ki incubated for 12 to 40 mins by NADH-linked enzymatic assay", "details": "time 12-40 min"}, "Candida albicans [27]": {"system": "Candida albicans", "experiment": "Inhibition of Candida albicans Fructose-1,6-Bisphosphate Aldolase C292S mutant transfected in Escherichia coli BL21 (DE3) at 500 uM incubated for 3 mins in presence of NADH by spectrophotometric analysis relative to control"}}, "data": [{"compound": "O=c1c2ccccc2[se]n1-c1ccccc1", "note": "[EBSELEN]", "values": [{"measurement": "Ratio IC50", "setting": "Candida albicans [1]", "value": 80.4}, {"measurement": "IC50", "setting": "[2]", "value": 1.15, "unit": "µM"}, {"measurement": "IC50", "setting": "[3]", "value": 0.031, "unit": "µM"}, {"measurement": "IC50", "setting": "[4]", "value": 0.0726, "unit": "µM"}, {"measurement": "MIC80", "setting": "Candida albicans [5]", "value": 2, "unit": "µg/mL"}, {"measurement": "MIC80", "setting": "Candida albicans [6]", "value": 2, "unit": "µg/mL"}, {"measurement": "MIC80", "setting": "Candida albicans [7]", "value": 2, "unit": "µg/mL"}, {"measurement": "MIC80", "setting": "Candida albicans [8]", "value": 2, "unit": "µg/mL"}, {"measurement": "IC50", "setting": "[9]", "value": 0.0143, "unit": "µM"}, {"measurement": "LD", "setting": "[10]", "value": "> 4600", "unit": "mg/kg"}, {"measurement": "IC50", "setting": "[11]", "value": "> 32", "unit": "µM"}]}, {"compound": "CCCCn1sc2ccccc2c1=O", "values": [{"measurement": "kcat", "setting": "Candida albicans [12]", "value": 38.6, "unit": "s⁻¹"}, {"measurement": "Km", "setting": "Candida albicans [13]", "value": 21.9, "unit": "µM"}, {"measurement": "kcat/Km", "setting": "Candida albicans [14]", "value": "1.8e+06", "unit": "M⁻¹ s⁻¹"}, {"measurement": "Ratio IC50", "setting": "Candida albicans [1]", "value": "> 28.3"}, {"measurement": "kcat", "setting": "Candida albicans [15]", "value": 24.8, "unit": "s⁻¹"}, {"measurement": "Km", "setting": "Candida albicans [16]", "value": 45.7, "unit": "µM"}, {"measurement": "kcat/Km", "setting": "Candida albicans [17]", "value": 500000, "unit": "M⁻¹ s⁻¹"}, {"measurement": "IC50", "setting": "[2]", "value": "> 500", "unit": "µM"}, {"measurement": "kcat", "setting": "Candida albicans [18]", "value": 34.7, "unit": "s⁻¹"}, {"measurement": "Km", "setting": "Candida albicans [19]", "value": 17.8, "unit": "µM"}, {"measurement": "kcat/Km", "setting": "Candida albicans [20]", "value": "2e+06", "unit": "M⁻¹ s⁻¹"}, {"measurement": "IC50", "setting": "[3]", "value": 12.5, "unit": "µM"}, {"measurement": "kcat", "setting": "Candida albicans [21]", "value": 36.1, "unit": "s⁻¹"}, {"measurement": "Km", "setting": "Candida albicans [22]", "value": 25.1, "unit": "µM"}, {"measurement": "kcat/Km", "setting": "Candida albicans [23]", "value": "1.4e+06", "unit": "M⁻¹ s⁻¹"}, {"measurement": "IC50", "setting": "[4]", "value": 9.9, "unit": "µM"}, {"measurement": "Ki", "setting": "[24]", "value": 5.96, "unit": "µM"}, {"measurement": "Kinact", "setting": "Candida albicans [25]", "value": 0.00178, "unit": "s⁻¹"}, {"measurement": "Ratio", "setting": "Candida albicans [26]", "value": 300, "unit": "M⁻¹ s⁻¹"}, {"measurement": "IC50", "setting": "[9]", "value": 17.7, "unit": "µM"}, {"measurement": "inhibition", "setting": "Candida albicans [27]", "value": "< 50", "unit": "%"}]}]}
